Values after ≈ are worked out from the molar mass of the structure shown. Values belong to the molecule of their own block, whether it stands above or below them.
What was measured:
S. aureus ATCC 29213 = assay: MIC broth microdilution (NCCLS); type: cell-based, Staphylococcus aureus; settings: Staphylococcus aureus, ATCC29213; S. aureus ATCC 29213; read-out: MIC
Method: (§1) Minimal Inhibitory Concentration (MIC) Determination. Bacteria (primary strain panel, TABLE 1). Susceptibility tests were performed following the recommendations from the National Committee for Clinical Standards (NCCLS). The MICs were determined by a broth microdilution technique using a final volume of 100 μl of cation-adjusted Mueller Hinton Broth (MHBCA) and a bacterial inoculum of 10^5-10^6 Colony Forming Units (CFU)/ml. The inocula were verified and precisely determined by applying 10-μl drops of 10-fold dilutions onto Triptic Soy Agar plates. The CFU were counted after an incubation of 24 h at 35° C. Any experiment showing an inoculum that was more or less than 10^5-10^6 CFU/ml was rejected. Control antibiotics and test compounds were prepared at a concentration equivalent to 2-fold the highest desired final concentration. Compounds were then diluted directly in the 96-well microtiter plates by serial 2-fold dilutions using a multichannel pipette. Microtiter plates were incubated during 24 h at 35° C. and growth was recorded by using a microtiterplate reader at 650 nm as well as by visual observation. The MIC was defined as the lowest concentration of compound yielding no visible growth. […] Fastidious bacteria. The medium used for Listeria monocytogenes, Neisseria meningitidis, and Campylobacter jejuni was MHBCA containing 2% laked horse blood. The medium used for Haemophilus influenzae and Branhamella (Moraxella) catarrhalis was HTM as recommended by the NCCLS. Cultures of these fastidious bacteria were incubated at 35° C. in a 5% CO2 atmosphere. […] The medium used for Bacteroides fragilis was Wilkins Chalgren broth and growth was allowed under an anaerobic atmosphere at 35° C. for 48 hours.

S. aureus MRSA COL = assay: MIC broth microdilution (NCCLS); type: cell-based, Staphylococcus aureus; settings: Staphylococcus aureus, MRSA, S. aureus MRSA COL; read-out: MIC
Method: as §1, with “hours. […]” for “hours.”

[1] = tested on: S. epidermidis ATCC 12228; assay: MIC broth microdilution (NCCLS); type: cell-based, Staphylococcus epidermidis; settings: Staphylococcus epidermidis, ATCC12228; S. epidermidis ATCC 12228; read-out: MIC
Method: as §1

[2] = tested on: S. saprophyticus ATCC 15305; assay: MIC broth microdilution (NCCLS); type: cell-based, Staphylococcus saprophyticus; settings: Staphylococcus saprophyticus, ATCC15305; S. saprophyticus ATCC 15305; read-out: MIC
Method: as §1

E. faecalis ATCC 29212 = assay: MIC broth microdilution (NCCLS); type: cell-based, Enterococcus faecalis; settings: Enterococcus faecalis, ATCC29212; E. faecalis ATCC 29212; read-out: MIC
Method: as §1

E. faecium ATCC 35667 = assay: MIC broth microdilution (NCCLS); type: cell-based, Enterococcus faecium; settings: Enterococcus faecium, ATCC35667, E. faecium ATCC 35667; read-out: MIC
Method: as §1

E. coli ATCC 25922 [3] = assay: MIC broth microdilution (NCCLS); type: cell-based, Escherichia coli; settings: Escherichia coli, ATCC25922, E. coli ATCC 25922 (Reference); read-out: MIC
Method: as §1

C. jejuni ATCC 33291 = assay: MIC broth microdilution (NCCLS), fastidious bacteria; type: cell-based; settings: Campylobacter jejuni, ATCC33291; C. jejuni ATCC 33291; MHBCA with 2% laked horse blood, 5% CO2; read-out: MIC
Method: as §1

[4] = tested on: L. monocytogenes ATCC 13932; assay: as above; type: cell-based; settings: Listeria monocytogenes, ATCC13932, MHBCA with 2% laked horse blood, 5% CO2
Method: as §1

B. fragilis ATCC 25285 = assay: MIC broth microdilution (NCCLS), anaerobic; type: cell-based; settings: Bacteroides fragilis, ATCC25285; B. fragilis ATCC 25285; Wilkins Chalgren broth, anaerobic, 48 hours; read-out: MIC
Method: as §1

E. coli ATCC 25922 [5] = assay: Minimal Bactericidal Concentration (MBC); type: cell-based; settings: Escherichia coli, ATCC25922, 99.9% killing
Method: (§2) Minimal Bactericidal Concentration (MBC). After the microtiter plates were read for the determination of the MIC, a 10-μl sample of each clear well (at least 5 wells without visible growth) was applied onto TSA plates for viable counts determination.
(§3) Petri dishes were incubated at 35° C. for exactly 24 h and bacterial colonies were counted.

[6] = tested on: S. saprophyticus ATCC 15305; assay: Minimal Bactericidal Concentration (MBC); type: cell-based; settings: Staphylococcus saprophyticus, ATCC15305; S. saprophyticus ATCC 15305; 99.9% killing; read-out: MBC
Method: as §2, §3

H. influenzae ATCC 49247 = assay: MIC broth microdilution (NCCLS), fastidious bacteria; type: cell-based; settings: Haemophilus influenzae, ATCC49247, HTM, 5% CO2
Method: as §1

H. influenzae ATCC 49766 = assay: as above; type: cell-based; settings: Haemophilus influenzae, ATCC49766, HTM, 5% CO2
Method: as §1

B. catarrhalis ATCC 8176 = assay: as above; type: cell-based, Branhamella (Moraxella) catarrhalis; settings: Moraxella catarrhalis, ATCC8176, HTM, 5% CO2
Method: as §1

M. smegmatis ATCC 19420 = assay: as above; type: cell-based, Mycobacterium smegmatis; settings: Mycolicibacterium smegmatis, ATCC19420, read after 48 hours
Method: as §1

E. faecium VanA = assay: MIC broth microdilution, antibiotic resistant strain panel; type: cell-based; settings: Enterococcus faecium; multi-resistant E. faecium VanA; read-out: MIC
Method: as §1
(§4) Finally, compounds were also tested against populations of various clinical strains (antibiotic resistant strain panel, TABLE 1).

MRSA strain Sa211c = assay: as above; type: cell-based, Staphylococcus aureus; settings: Staphylococcus aureus; multi-resistant MRSA strain Sa211c; read-out: MIC
Method: as §1, §4

MRSA strain Sa212c = assay: as above; type: cell-based, Staphylococcus aureus; settings: Staphylococcus aureus; multi-resistant MRSA strain Sa212c; read-out: MIC
Method: as §1, §4

MRSA strain Sa220c = assay: as above; type: cell-based, Staphylococcus aureus; settings: Staphylococcus aureus; multi-resistant MRSA strain Sa220c; read-out: MIC
Method: as §1, §4

MRSA strain Sa224c = assay: as above; type: cell-based, Staphylococcus aureus; settings: Staphylococcus aureus; multi-resistant MRSA strain Sa224c; read-out: MIC
Method: as §1, §4

MRSA strain Sa228c = assay: as above; type: cell-based, Staphylococcus aureus; settings: Staphylococcus aureus; multi-resistant MRSA strain Sa228c; read-out: MIC
Method: as §1, §4

MRSA strain Sa234c = assay: as above; type: cell-based, Staphylococcus aureus; settings: Staphylococcus aureus; multi-resistant MRSA strain Sa234c; read-out: MIC
Method: as §1, §4

MRSA strain Sa248c = assay: as above; type: cell-based, Staphylococcus aureus; settings: Staphylococcus aureus; multi-resistant MRSA strain Sa248c; read-out: MIC
Method: as §1, §4

MRSA strain Sa249c = assay: as above; type: cell-based, Staphylococcus aureus; settings: Staphylococcus aureus; multi-resistant MRSA strain Sa249c; read-out: MIC
Method: as §1, §4

MRSA strain Sa253c = assay: as above; type: cell-based, Staphylococcus aureus; settings: Staphylococcus aureus; multi-resistant MRSA strain Sa253c; read-out: MIC
Method: as §1, §4

Solubility in water = type: physicochemical
Method: Solubility of Compounds V and XV. The extent of solubility of compounds was evaluated in water.

MIC (S. aureus ATCC 29213): 16 µg/mL (≈ 49.5 µM)
MIC (S. aureus MRSA COL): 8 µg/mL (≈ 24.8 µM)
MIC [1]: 8 µg/mL (≈ 24.8 µM)
MIC [2]: 4 to 8 µg/mL (≈ 12.4 to 24.8 µM)
MIC (E. faecalis ATCC 29212): 8 µg/mL (≈ 24.8 µM)
MIC (E. faecium ATCC 35667): 8 µg/mL (≈ 24.8 µM)
MIC (E. coli ATCC 25922 [3]): 4 µg/mL (≈ 12.4 µM)
MIC (C. jejuni ATCC 33291): 4 µg/mL (≈ 12.4 µM)
MIC [4]: 0.001 µg/mL (≈ 0.00309 µM)
MIC (B. fragilis ATCC 25285): 4 µg/mL (≈ 12.4 µM)
SMILES: O=C(N[C@H](CO)[C@H](O)c1ccc([N+](=O)[O-])cc1)C(Cl)Cl [Chloramphenicol]
MBC (E. coli ATCC 25922 [5]): 16 µg/mL (≈ 49.5 µM)
MBC [6]: 16 to 32 µg/mL (≈ 49.5 to 99 µM)

MIC (S. aureus ATCC 29213): 2 µg/mL (≈ 4.08 µM)
MIC (S. aureus MRSA COL): 0.5 µg/mL (≈ 1.02 µM)
MIC [1]: 1 to 2 µg/mL (≈ 2.04 to 4.08 µM)
MIC [2]: 2 µg/mL (≈ 4.08 µM)
MIC (E. faecalis ATCC 29212): 2 to 8 µg/mL (≈ 4.08 to 16.3 µM)
MIC (E. faecium ATCC 35667): 8 µg/mL (≈ 16.3 µM)
MIC (H. influenzae ATCC 49247): 2 µg/mL (≈ 4.08 µM)
MIC (H. influenzae ATCC 49766): 2 µg/mL (≈ 4.08 µM)
MIC [4]: 0.5 µg/mL (≈ 1.02 µM)
MIC (B. catarrhalis ATCC 8176): 0.5 µg/mL (≈ 1.02 µM)
MIC (M. smegmatis ATCC 19420): 0.25 µg/mL (≈ 0.51 µM)
MIC (B. fragilis ATCC 25285): 0.5 µg/mL (≈ 1.02 µM)
MIC (E. faecium VanA): 0.5 µg/mL (≈ 1.02 µM)
MIC (MRSA strain Sa211c): 2 µg/mL (≈ 4.08 µM)
MIC (MRSA strain Sa212c): 4 µg/mL (≈ 8.16 µM)
MIC (MRSA strain Sa220c): 0.25 µg/mL (≈ 0.51 µM)
MIC (MRSA strain Sa224c): 1 µg/mL (≈ 2.04 µM)
MIC (MRSA strain Sa228c): 2 µg/mL (≈ 4.08 µM)
MIC (MRSA strain Sa234c): 2 µg/mL (≈ 4.08 µM)
MIC (MRSA strain Sa248c): 0.5 µg/mL (≈ 1.02 µM)
MIC (MRSA strain Sa249c): 0.5 µg/mL (≈ 1.02 µM)
MIC (MRSA strain Sa253c): 2 µg/mL (≈ 4.08 µM)
solubility relative to Compound V (Solubility in water): 4 times
solubility (Solubility in water; read-out: solubility in water (no visible particles)): 1000 µg/mL (≈ 2040 µM)
SMILES: CN1CCN(c2cc3nc(C=Cc4ccc([N+](=O)[O-])o4)nc(Nc4ccc(O)cc4)c3cc2F)CC1 [Compound XV, 7-(4-methylpiperazino)-6-fluoro-2-[2-(5-nitro-2-furyl)vinyl]-4-(p-hydroxyanilino)-quinazoline]
